The results in this text go back to ChEMBL document CHEMBL1138190, “Synthesis and antibacterial activity of novel C12 vinyl ketolides” (J Med Chem, 2006).

Values after ≈ are worked out from the molar mass of the structure shown.

Holding throughout (assay type): functional
Assay [1] has as its system Staphylococcus epidermidis. The experiment in a line: Antibacterial activity against Staphylococcus epidermidis 14990.
Another assay relates to Streptococcus pyogenes. The experiment in a line: Antibacterial activity against Streptococcus pyogenes 8668.
The test system of assay [2] is Staphylococcus aureus. The assay can be described thus: Antibacterial activity against Staphylococcus aureus 29213.
The test system of assay [3] is Streptococcus pneumoniae. The assay can be described thus: Antibacterial activity against Streptococcus pneumoniae Mef 5654.
In assay [4] the test system is Haemophilus influenzae. The experiment in a line: Antibacterial activity against Haemophilus influenzae 49247.
Assay [5] deals with Staphylococcus aureus. The assay can be described thus: Antibacterial activity against Staphylococcus aureus 33591.
The test system of assay [6] is Enterococcus faecalis. The experiment in a line: Antibacterial activity against Enterococcus faecalis bc11148-2.
Assay [7] relates to Streptococcus pneumoniae. The assay can be described thus: Antibacterial activity against Streptococcus pneumoniae 49619.
Assay [8] has as its system Streptococcus pneumoniae. The experiment in a line: Antibacterial activity against Streptococcus pneumoniae Erm 6849.
Assay [9] relates to Enterococcus faecalis. The assay can be described thus: Antibacterial activity against Enterococcus faecalis 29212.
The test system of assay [10] is Streptococcus pneumoniae. The experiment in a line: Antibacterial activity against Streptococcus pneumoniae Mef S 3427.
In assay [11] the test system is Staphylococcus epidermidis. The assay can be described thus: Antibacterial activity against Staphylococcus epidermidis f50654.
The subject of assay [12] is Streptococcus pneumoniae. The experiment in a line: Antibacterial activity against Streptococcus pneumoniae 280-962.
Assay [13] deals with Haemophilus influenzae. The experiment in a line: Antibacterial activity against Haemophilus influenzae 2762.
The test system of assay [14] is Streptococcus pneumoniae. The assay can be described thus: Antibacterial activity against Streptococcus pneumoniae 297-749.

Consider `C=C[C@]12OC(=O)N(CCCCn3cc(-c4ccc(Cl)nc4)nc3C)[C@@H]1[C@@H](C)C(=O)[C@H](C)C[C@@](C)(OC)[C@H](O[C@@H]1O[C@H](C)C[C@H](N(C)C)[C@H]1O)[C@@H](C)C(=O)[C@@H](C)C(=O)O[C@@H]2CC`, for which the MIC in assay [1] was 0.1 µg/mL (≈ 0.115 µM); against Streptococcus pyogenes, at most 0.05 µg/mL; with Staphylococcus aureus [2] it was 0.2 µg/mL (≈ 0.229 µM); against Streptococcus pneumoniae [3], 0.78 µg/mL (≈ 0.894 µM); against Haemophilus influenzae [4] it was 6.25 µg/mL (≈ 7.16 µM); against Staphylococcus aureus [5] it was over 50 µg/mL. In addition, the MIC was 3.13 µg/mL (≈ 3.59 µM) in the assay with Enterococcus faecalis [6]; at most 0.05 µg/mL in the assay on Streptococcus pneumoniae [7]; 0.4 µg/mL (≈ 0.458 µM) in the assay with Streptococcus pneumoniae [8]; 0.1 µg/mL (≈ 0.115 µM) against Enterococcus faecalis [9]; at most 0.05 µg/mL against Streptococcus pneumoniae [10]; 0.2 µg/mL (≈ 0.229 µM) in assay [11]. Further, the MIC with Streptococcus pneumoniae [12] is at most 0.05 µg/mL; in the assay with Haemophilus influenzae [13] it was 1.56 µg/mL (≈ 1.79 µM); with Streptococcus pneumoniae [14], at most 0.05 µg/mL.

For the compound `C=C[C@]12OC(=O)N(CCCCn3cnc(-c4ccc(OC)nc4)c3)[C@@H]1[C@@H](C)C(=O)[C@H](C)C[C@@](C)(OC)[C@H](O[C@@H]1O[C@H](C)C[C@H](N(C)C)[C@H]1O)[C@@H](C)C(=O)[C@@H](C)C(=O)O[C@@H]2CC`, the MIC was 0.2 µg/mL (≈ 0.234 µM) in [1]; at most 0.05 µg/mL in the assay on Streptococcus pyogenes; 0.1 µg/mL (≈ 0.117 µM) against Staphylococcus aureus [2]; 0.78 µg/mL (≈ 0.913 µM) against Streptococcus pneumoniae [3]; 6.25 µg/mL (≈ 7.32 µM) in the assay with Haemophilus influenzae [4]; over 50 µg/mL against Staphylococcus aureus [5]. Further, the MIC was 0.78 µg/mL (≈ 0.913 µM) in the assay with Enterococcus faecalis [6]; at most 0.05 µg/mL in the assay with Streptococcus pneumoniae [7]; 0.4 µg/mL (≈ 0.468 µM) with Streptococcus pneumoniae [8]; at most 0.05 µg/mL with Enterococcus faecalis [9]; 0.1 µg/mL (≈ 0.117 µM) with Streptococcus pneumoniae [10]; 0.1 µg/mL (≈ 0.117 µM) in [11]. The MIC is at most 0.05 µg/mL with Streptococcus pneumoniae [12], 0.78 µg/mL (≈ 0.913 µM) in the assay on Haemophilus influenzae [13] and at most 0.05 µg/mL in the assay on Streptococcus pneumoniae [14].

With `C=C[C@]12OC(=O)N(CCCCn3cc(Cl)c4ncccc43)[C@@H]1[C@@H](C)C(=O)[C@H](C)C[C@@](C)(OC)[C@H](O[C@@H]1O[C@H](C)C[C@H](N(C)C)[C@H]1O)[C@@H](C)C(=O)[C@@H](C)C(=O)O[C@@H]2CC`, the MIC in assay [1] was 0.1 µg/mL (≈ 0.12 µM); in the assay with Streptococcus pyogenes it was at most 0.05 µg/mL; in the assay on Staphylococcus aureus [2], 0.2 µg/mL (≈ 0.241 µM); against Streptococcus pneumoniae [3], 0.78 µg/mL (≈ 0.938 µM); with Haemophilus influenzae [4], 3.13 µg/mL (≈ 3.76 µM); with Staphylococcus aureus [5] it was over 50 µg/mL. Also, the MIC was 1.56 µg/mL (≈ 1.88 µM) in the assay on Enterococcus faecalis [6]; at most 0.05 µg/mL in the assay with Streptococcus pneumoniae [7]; 3.13 µg/mL (≈ 3.76 µM) in the assay on Streptococcus pneumoniae [8]; 0.1 µg/mL (≈ 0.12 µM) against Enterococcus faecalis [9]; 0.1 µg/mL (≈ 0.12 µM) against Streptococcus pneumoniae [10]; 0.1 µg/mL (≈ 0.12 µM) in assay [11]. For the same compound, the MIC in the assay with Streptococcus pneumoniae [12] is at most 0.05 µg/mL; against Haemophilus influenzae [13], 0.78 µg/mL (≈ 0.938 µM); in the assay on Streptococcus pneumoniae [14] it was at most 0.05 µg/mL.
